Data from patent US20230357134A1, “AGENTS FOR USE IN THE TREATMENT OF AMYLOIDOSIS” (UCL BUSINESS LTD, priority 2020, published 2023).

Experiments:
[1] = target: T1, recombinant Val122Ile TTR (Homo sapiens, UniProt P02766, V142I); test: Mechano-enzymatic fibrillogenesis, TTR amyloid by ThT emission fluorescence; assay type: biochemical; settings: equimolar ligand, 96 h pellets, normalized to 100 % without ligand, mean (SD)
T1 construct: the non-covalently associated protomers, of mass 13,761, each contain 127 residues; His6 (N); TEV cleavage site (N); made in house; host or cells: E. coli BL21 (DE3)
Method: (§1) Briefly, fibrillogenesis of recombinant Val122Ile TTR at 0.5 mg/ml (9 μM) in PBS, pH 7.4 was carried out in glass vials stirred at 1,400 rpm (IKA magnetic stirrer) and 37° C. in the presence and in the absence of trypsin (5 ng/μl). […] Each ligand was tested at 4 different concentrations (4.5, 9, 18, 36 μM respectively) corresponding to the following drug/TTR molar ratios of 0.5:1, 1:1, 2:1 and 4:1. Several dilutions of the drug stock solutions were made in order to add the same volume of DMSO to each sample. Control samples without drug were added with the same volume of DMSO only. To allow complete binding of ligand by TTR each sample was incubated for 30 min at 37° C. before addition of trypsin. Spectrophotometric turbidity at 400 nm was used to monitor fibril formation over time until it reached a plateau at 96 h. Aggregation of TTR in the presence of equimolar ligand concentrations was quantified as spectrophotometric turbidity at 400 nm as a proportion of 100% for aggregation of the protein in the absence of ligands (Table 2).
At the end of the 96 h aggregation, pellets were harvested from each protein sample by 20 min centrifugation at 11,600 g, thoroughly rinsed with PBS to remove non-bound ligand, resuspended with 100 μl PBS, pH 7.4 containing 10 μM ThT in Costar 96-well black-wall plates. Bottom fluorescence values (excitation 440 nm, emission 480 nm) were recorded using a BMG LABTECH FLUostar Omega plate reader. Each value was normalized to the ThT signal of the TTR sample without ligand (Table 2)

[2] = target: T2, TTR in whole human plasma (Homo sapiens, UniProt P02766); test: Displacement of 125I-T4 from TTR in normal human plasma; assay type: binding; settings: wild type TTR, 30 min 37° C. with ligand, immunoprecipitation, mean of at least 3 replicates; for IC50: read-out: D50 plasma
T2 construct: TTR in whole plasma, from individuals homozygous for wild type TTR; from tissue; host or cells: whole human plasma
Method: 3.2 Displacement of ^125-T4 from TTR in Normal Human Plasma.
The displacement of ^125I-T4 from TTR in whole plasma, from individuals homozygous for wild type TTR, was studied by incubating plasma with each ligand at increasing concentrations for 30 min at 37° C., further incubation with […] followed by measurement of the radioactivity in the immunoprecipitate obtained with anti-TTR antibodies. […] Percentage binding was plotted against the logarithm of the inhibitor concentration, and D50 (concentration of ligand reducing the binding of T4 by TTR by 50%) was determined using a four parameter dose-response curve with GraphPad Prism 5 (Table 1).

[3] = target: T1, recombinant Val122Ile TTR; test: Mechano-enzymatic fibrillogenesis, TTR aggregation by turbidity at 400 nm; assay type: biochemical; settings: equimolar ligand, Val122Ile TTR 9 μM, trypsin, 96 h; 100 % = protein without ligand; mean (SD)
Method: as §1

[4] = target: T3, isolated wild type TTR (Homo sapiens, UniProt P02766); test: Displacement of 125I-T4 from isolated wild type TTR in buffer; settings: concentration of ligand reducing binding of 125I-T4 by TTR by 50%; 125 nM TTR, pH 8.0, overnight 4° C.; mean of at least 3 replicates; read-out: D50 buffer
T3 construct: the non-covalently associated protomers, of mass 13,761, each contain 127 residues; His6 (N); TEV cleavage site (N); made in house; host or cells: E. coli BL21 (DE3)
Method: 3. Evaluation of Ligand Activity Based on Capacity to Displace ^125I-Thyroxine (T4) from TTR in Buffer/Human Plasma 3.1 Displacement of ^125I-T4 from Isolated Wild Type TR.
Competition of ligands with T4 for binding by TTR was assayed quantitatively by a previously described procedure (Kolstoe et al., 2010). Briefly, a solution of 125 nM TTR in 0.1 M Tris-HCl, 0.1 M NaCl and 0.001 M EDTA buffer, pH 8.0, was incubated overnight at 4° C. in the presence of 1.07 nM ^125I T4 (1,200 μCi/μg, 200 μCi/ml, Perkin Elmer) and increasing concentrations of inhibitor (0-5 μM) in 40 μl final volume. ^125I T4 bound by TTR was separated from unbound T4 by gel filtration chromatography using Micro Bio Spin 6 columns (Bio-Rad) previously equilibrated with the reaction buffer containing 1% w/v BSA. After counting with a Wizard2 gamma counter (Perkin-Elmer) for 60 s, percentage binding was plotted against the logarithm of the inhibitor concentration, and D50 (concentration of ligand reducing the binding of T4 by TTR by 50%) was determined using a four parameters dose-response curve with GraphPad Prism 5 (Table 1).

SMILES	% Aggregation (Fluorescence method) [1]	IC50 [2]	% Aggregation (Turbidity method) [3]	IC50 [4]	D50 plasma [2]
O=C(O)CCc1cc(Cl)c(OCCCOCCCOc2ccc(-c3nc4ccc(C(=O)O)cc4o3)cc2Cl)c(Cl)c1 [Compound B15, 2-[4-[3-[3-[4-(2-carboxyethyl)-2,6-dichloro-phenoxy]propoxy]propoxy]-3-chlorophenyl]-1,3-benzoxazole-6-carboxylic acid]	12.7 (5.73) %	61000 nM	5.56 (0.75) %	100 nM	–
Cc1n[nH]c(COCCCCOCCOc2c(Cl)cc(CCC(=O)O)cc2Cl)c1CCCOc1cc(C(=O)O)ccc1F [Compound B10, 3-[3-[5-[4-[2-[4-(2-carboxyethyl)-2,6-dichloro-phenoxy]ethoxy]butoxymethyl]-3-methyl-1H-pyrazol-4-yl]propoxy]-4-fluoro-benzoic acid]	16.6 (nd) %	–	14.88 (nd) %	5600 nM	no binding
O=C(O)CCc1cc(Cl)c(OCCOCCCCOc2c(Cl)cc(Nc3ccccc3C(=O)O)cc2Cl)c(Cl)c1 [Compound B2, 2-[4-[4-[2-[4-(2-carboxyethyl)-2,6-dichloro-phenoxy]ethoxy]butoxy]-3,5-dichloro-anilino]benzoic acid]	4.36 (1.51) %	2590 nM	5.25 (1.68) %	100 nM	–
O=C(O)CCc1ccc(OCCCOCCCOc2c(Cl)cc(-c3nc4ccc(C(=O)O)cc4o3)cc2Cl)c(Cl)c1 [Compound B19, 2-[4-[3-[3-[4-(2-carboxyethyl)-2-chloro-phenoxy]propoxy]propoxy]-3,5-dichloro-phenyl]-1,3-benzoxazole-6-carboxylic acid]	7.27 (1.17) %	> 100000 nM	3.99 (0.928) %	160 nM	–
O=C(O)CCc1ccc(OCCCOCCCOc2ccc(-c3nc4ccc(C(=O)O)cc4o3)cc2Cl)c(Cl)c1 [Compound B18, 2-[4-[3-[3-[4-(2-carboxyethyl)-2-chloro-phenoxy]propoxy]propoxy]-3-chloro-phenyl]-1,3-benzoxazole-6-carboxylic acid]	2.45 (1.39) %	> 100000 nM	3.31 (0.68) %	210 nM	–
O=C(O)CCc1cc(Cl)c(OCC[C@@H](O)[C@H](O)CCOc2c(Cl)cc(Nc3ccccc3C(=O)O)cc2Cl)c(Cl)c1 [Compound B4A, 2-[4-[(3R,4R)-6-[4-(2-carboxyethyl)-2,6-dichloro-phenoxy]-3,4-dihydroxy-hexoxy]-3,5-dichloro-anilino]benzoicacid]	3.30 (1.19) %	2300 nM	4.99 (0.46) %	66 nM	–

Continued, in another order:

% Aggregation (Fluorescence method) [1]	IC50 [2]	% Aggregation (Turbidity method) [3]	IC50 [4]	SMILES	D50 plasma [2]
10.6 (10.5) %	7600 nM	6.60 (2.40) %	140 nM	O=C(O)CCc1cc(Cl)c(OCCCOCCOc2c(Cl)cc(Nc3cnncc3C(=O)O)cc2Cl)c(Cl)c1 [Compound B24, 5-[4-[2-[3-[4-(2-carboxyethyl)-2,6-dichloro-phenoxy]propoxy]ethoxy]-3,5-dichloro-anilino]pyridazine-4-carboxylic acid]	–
3.86 (2.29) %	17300 nM	4.52 (1.08) %	100 nM	O=C(O)CCc1cc(Cl)c(OCC[C@@H](O)[C@H](O)CCOc2ccc(-c3nc4ccc(C(=O)O)cc4o3)cc2Cl)c(Cl)c1 [Compound B17, 2-[4-[(3R,4R)-6-[4-(2-carboxyethyl)-2,6-dichloro-phenoxy]-3,4-dihydroxy-hexoxy]-3-chloro-phenyl]-1,3-benzoxazole-6-carboxylic acid]	–
4.74 (2.93) %	4400 nM	3.52 (1.14) %	70 nM	O=C(O)CCc1cc(Cl)c(OCC[C@H](O)[C@@H](O)CCOc2c(Cl)cc(Nc3ccccc3C(=O)O)cc2Cl)c(Cl)c1 [Compound B4, 2-[4-[(3S,4S)-6-[4-(2-carboxyethyl)-2,6-dichloro-phenoxy]-3,4-dihydroxy-hexoxy]-3,5-dichloro-anilino]benzoic acid]	–
